Reference: patent US9708314B2, “Heterocyclic amide compound” (NISSAN CHEMICAL INDUSTRIES, LTD., priority 2013, dated 2017)

Experiments:
Assay type in all cases: in vivo
[1] = test system: transplanted Oryza sativa; test: Test Example 1: effect on crop, application before weed generation in submerged conditions; conditions: Application herbicide amount 320 g/ha; Seventeenth Table
Method in brief: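 Water-diluted emulsion formulation is applied onto flood water (4 cm deep) covering alluvial soil on the day weed seeds are sown, after transplanting 2.5 leaf stage rice. Rates are expressed per hectare. Injury or control is graded 0–5 three weeks later.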

Brassica campestris L. = test: Test Example 4: effect on crop by application to foliage (diluvial soil, plastic box); conditions: application to foliage, application herbicide amount 320 g/ha
Method in brief: (§1)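 Greenhouse plants (25° C. to 30° C., 14 d, diluvial soil) receive a foliar spray of water-diluted emulsifiable formulation at defined g/ha. Grading after 3 weeks uses a six-step herbicidal-ratio scale, with 4 covering 70% to <90% and 1 covering 5% to <20%.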

[2] = test system: directly sowed Oryza sativa; test: as above; conditions: application to foliage, application herbicide amount 320 g/ha
Method in brief: as §1

Glycine max = test: as above; conditions: application to foliage, application herbicide amount 320 g/ha
Method in brief: as §1

[3] = test system: Beta vulgaris ssp. vulgaris; test: as above; conditions: application to foliage, application herbicide amount 320 g/ha
Method in brief: as §1

Stellaria media = test: Test Example 4: herbicidal effect by application to foliage (diluvial soil, plastic box); conditions: application to foliage, application herbicide amount 320 g/ha
Method in brief: as §1

Amaranthus retroflexus = test: as above; conditions: application to foliage, application herbicide amount 320 g/ha
Method in brief: as §1

Structure (SMILES) | a: transplanted Oryza sativa (effect on crop grade) [1] | g (Brassica campestris L.) effect on crop (Brassica campestris L.) | d (directly sowed Oryza sativa) effect on crop [2] | c (Glycine max) effect on crop (Glycine max) | f (Beta vulgaris ssp. vulgaris) effect on crop [3] | P (Stellaria media) herbicidal effect (Stellaria media) | N (Amaranthus retroflexus) herbicidal effect (Amaranthus retroflexus)
Cc1cc(-c2nnc3c(C(=O)Nc4nnc(C)o4)ccc(C(F)(F)F)n23)no1 [1-022] | 0 (Herbicidal ratio of 5% or less (almost no effect)) | 2 (Herbicidal ratio of 20% or more and less than 40%) | 3 (Herbicidal ratio of 40% or more and less than 70%) | 2 (Herbicidal ratio of 20% or more and less than 40%) | 4 (Herbicidal ratio of 70% or more and less than 90%) | 4 (Herbicidal ratio of 70% or more and less than 90%) | 5 (Herbicidal ratio of 90% or more (almost completely withered))
CCCc1nnc2c(C(=O)Nc3nnc(C)o3)ccc(C(F)(F)F)n12 [1-024] | 0 (Herbicidal ratio of 5% or less (almost no effect)) | 4 (Herbicidal ratio of 70% or more and less than 90%) | 4 (Herbicidal ratio of 70% or more and less than 90%) | 2 (Herbicidal ratio of 20% or more and less than 40%) | 4 (Herbicidal ratio of 70% or more and less than 90%) | 4 (Herbicidal ratio of 70% or more and less than 90%) | 5 (Herbicidal ratio of 90% or more (almost completely withered))
Cc1nnc(NC(=O)c2ccc(C(F)(F)F)n3c(C4CCCC4)nnc23)o1 [1-026] | 2 (Herbicidal ratio of 20% or more and less than 40%) | 3 (Herbicidal ratio of 40% or more and less than 70%) | 3 (Herbicidal ratio of 40% or more and less than 70%) | 0 (Herbicidal ratio of 5% or less (almost no effect)) | 5 (Herbicidal ratio of 90% or more (almost completely withered)) | 5 (Herbicidal ratio of 90% or more (almost completely withered)) | 4 (Herbicidal ratio of 70% or more and less than 90%)
CCOCc1nnc2c(C(=O)Nc3nnc(C)o3)ccc(C(F)(F)F)n12 [1-027] | 1 (Herbicidal ratio of 5% or more and less than 20%) | 4 (Herbicidal ratio of 70% or more and less than 90%) | 5 (Herbicidal ratio of 90% or more (almost completely withered)) | 1 (Herbicidal ratio of 5% or more and less than 20%) | 5 (Herbicidal ratio of 90% or more (almost completely withered)) | 5 (Herbicidal ratio of 90% or more (almost completely withered)) | 5 (Herbicidal ratio of 90% or more (almost completely withered))
Cc1nnc(NC(=O)c2ccc(C(F)(F)F)n3c(C4=NOC(C)(C)C4)nnc23)o1 [1-029] | 2 (Herbicidal ratio of 20% or more and less than 40%) | 1 (Herbicidal ratio of 5% or more and less than 20%) | 3 (Herbicidal ratio of 40% or more and less than 70%) | 1 (Herbicidal ratio of 5% or more and less than 20%) | 5 (Herbicidal ratio of 90% or more (almost completely withered)) | 5 (Herbicidal ratio of 90% or more (almost completely withered)) | 5 (Herbicidal ratio of 90% or more (almost completely withered))
CSCc1nnc2c(C(=O)Nc3nnc(C)o3)ccc(C(F)(F)F)n12 [1-030] | 0 (Herbicidal ratio of 5% or less (almost no effect)) | 4 (Herbicidal ratio of 70% or more and less than 90%) | 5 (Herbicidal ratio of 90% or more (almost completely withered)) | 2 (Herbicidal ratio of 20% or more and less than 40%) | 5 (Herbicidal ratio of 90% or more (almost completely withered)) | 5 (Herbicidal ratio of 90% or more (almost completely withered)) | 5 (Herbicidal ratio of 90% or more (almost completely withered))
Cc1nnc(NC(=O)c2ccc(C(F)(F)F)n3c(CSCC(F)(F)F)nnc23)o1 [1-031] | 0 (Herbicidal ratio of 5% or less (almost no effect)) | 3 (Herbicidal ratio of 40% or more and less than 70%) | 3 (Herbicidal ratio of 40% or more and less than 70%) | 1 (Herbicidal ratio of 5% or more and less than 20%) | 3 (Herbicidal ratio of 40% or more and less than 70%) | 4 (Herbicidal ratio of 70% or more and less than 90%) | 4 (Herbicidal ratio of 70% or more and less than 90%)
CCSc1nnc2c(C(=O)Nc3nnc(C)o3)ccc(C(F)(F)F)n12 [1-032] | 2 (Herbicidal ratio of 20% or more and less than 40%) | 4 (Herbicidal ratio of 70% or more and less than 90%) | 4 (Herbicidal ratio of 70% or more and less than 90%) | 0 (Herbicidal ratio of 5% or less (almost no effect)) | 5 (Herbicidal ratio of 90% or more (almost completely withered)) | 5 (Herbicidal ratio of 90% or more (almost completely withered)) | 5 (Herbicidal ratio of 90% or more (almost completely withered))
Cc1nnc(NC(=O)c2ccc(C(F)(F)F)n3c(SC(C)C)nnc23)o1 [1-033] | 0 (Herbicidal ratio of 5% or less (almost no effect)) | 4 (Herbicidal ratio of 70% or more and less than 90%) | 3 (Herbicidal ratio of 40% or more and less than 70%) | 2 (Herbicidal ratio of 20% or more and less than 40%) | 5 (Herbicidal ratio of 90% or more (almost completely withered)) | 5 (Herbicidal ratio of 90% or more (almost completely withered)) | 5 (Herbicidal ratio of 90% or more (almost completely withered))
CC[S+]([O-])c1nnc2c(C(=O)Nc3nnc(C)o3)ccc(C(F)(F)F)n12 (stereo not shown) [1-034] | 3 (Herbicidal ratio of 40% or more and less than 70%) | 4 (Herbicidal ratio of 70% or more and less than 90%) | 4 (Herbicidal ratio of 70% or more and less than 90%) | 1 (Herbicidal ratio of 5% or more and less than 20%) | 5 (Herbicidal ratio of 90% or more (almost completely withered)) | 5 (Herbicidal ratio of 90% or more (almost completely withered)) | 5 (Herbicidal ratio of 90% or more (almost completely withered))
